# Measured values as given in patent US10993439B2, “Mesoionic imidazopyridines as insecticides” (BAYER AKTIENGESELLSCHAFT, priority 2017, dated 2021).
# Key:
# [1] = log P by HPLC on reversed-phase column (EEC directive 79/831 Annex V.A8); format: physicochemical; conditions: reversed-phase column (C18), 43° C., calibration with unbranched alkan-2-ones
# Protocol: The log P values reported in the tables and preparation examples above were determined in accordance with EEC directive 79/831 Annex V.A8 by HPLC (High Performance Liquid Chromatography) using a reversed-phase column (C18). Temperature 43° C. The calibration is effected with unbranched alkan-2-ones (having 3 to 16 carbon atoms), for which the log P values are known.
# Ctenocephalides felis = Ctenocephalides felis in vitro contact test with adult cat fleas; format: in vivo; conditions: application rate 5 μg/cm^2 (=500 g of ai/ha), after 48 h
# Protocol: For the coating of the test tubes, 9 mg of active compound are first dissolved in 1 ml of acetone p.a. and then diluted to the desired concentration with acetone p.a. 250 μl of the solution are distributed homogeneously on the inner walls and the base of a 25 ml test tube by turning and rocking on an orbital shaker (rocking rotation at 30 rpm for 2 h). With 900 ppm active compound solution and internal surface 44.7 cm^2, given homogeneous distribution, an area-based dose of 5 μg/cm^2 is achieved.
# After the solvent has evaporated off, the tubes are populated with 5-10 adult cat fleas (Ctenocephalides felis), sealed with a perforated plastic lid and incubated in a horizontal position at room temperature and ambient humidity. After 48 h, efficacy is determined. To this end, the tubes are stood upright and the fleas are knocked to the base of the tube. Fleas which remain motionless at the base or are moved in an uncoordinated manner are considered to be dead or moribund.
# 100% efficacy means that all the fleas were dead or moribund. 0% efficacy means that no fleas were harmed.
# Diabrotica balteata = Diabrotica balteata spray test; format: in vivo; conditions: application rate 160 μg/well; beetle larvae on germinated wheat grains; after 7 days
# Protocol: (§1) Solvents: 78 parts by weight of acetone • • 1.5 parts by weight of dimethylformamide
# (§2) Emulsifier: alkylaryl polyglycol ether
# (§3) To produce a suitable preparation of active compound, 1 part by weight of active compound is dissolved using the stated parts by weight of solvent and made up with water containing an emulsifier concentration of 1000 ppm until the desired concentration is attained. To produce further test concentrations, the preparation is diluted with emulsifier-containing water.
# Preswollen wheat grains (Triticum aestivum) are incubated in a multiwell plate filled with agar and a little water for one day (5 seed grains per well). The germinated wheat grains are sprayed with an active compound preparation of the desired concentration. Subsequently, each well is infested with 10-20 Diabrotica balteata beetle larvae.
# After 7 days, the efficacy in % is determined. 100% means that all wheat plants have grown as in the untreated non-infested control; 0% means that no wheat plant has grown.
# Myzus persicae [2] = assay: Myzus persicae oral test; format: in vivo; conditions: application rate 4 ppm; mixed population of green peach aphid; after 5 days
# Protocol: Solvent: 100 parts by weight of acetone
# The plates are then sealed with parafilm which can be pierced by a mixed population of the green peach aphid (Myzus persicae) located in a second microtiter plate in order to take up the solution.
# (§4) After 5 days, the efficacy in % is determined. 100% means that all the aphids have been killed; 0% means that none of the aphids have been killed.
# Myzus persicae [3] = assay: Myzus persicae spray test; format: in vivo; conditions: application rate 500 g/ha; Chinese cabbage leaf discs, all stages of green peach aphid; after 5 days
# Protocol: as §1, §2, §3
# Discs of Chinese cabbage leaves (Brassica pekinensis) infested by all stages of the green peach aphid (Myzus persicae) are sprayed with an active compound preparation of the desired concentration.
# as §4
Structure (SMILES),chromatographic logP [1],also measured
"N#CCCn1c([O-])c(C(=O)c2cccc(C(F)(F)F)c2)[n+]2ccccc12 [I-004, 1-(2-Cyanoethyl)-3-[3-(trifluoromethyl)benzoyl]imidazo[1,2-a]pyridin-4-ium-2-olate]",1.35,efficacy (aphids killed) (Myzus persicae [2]): 100%
"COC(=O)c1c([O-])n(CC(F)(F)F)c2cccc[n+]12 [3-methoxycarbonyl-1-(2,2,2-trifluoroethyl)imidazo[1,2-a]pyridin-4-ium-2-olate]",1.01,
"CC1(OC(=O)C(=O)c2c([O-])n(CCC#N)c3cccc[n+]23)CC1 [I-089, 1-(2-Cyanoethyl)-3-[2-(1-methylcyclopropoxy)-2-oxo-acetyl]imidazo[1,2-a]pyridin-4-ium-2-olate]",1.33,efficacy (aphids killed) (Myzus persicae [3]): 90%
"CO/N=C/C(=O)c1c([O-])n(CCC#N)c2cccc[n+]12 [I-094, 1-(2-Cyanoethyl)-3-[(2E)-2-methoxyiminoacetyl]imidazo[1,2-a]pyridin-4-ium-2-olate]",0.73,efficacy (aphids killed) (Myzus persicae [2]): 100%
"N#CCCn1c([O-])c(C(=O)Nc2c(Cl)cccc2Cl)[n+]2ccccc12 [I-016, 1-(2-Cyanoethyl)-3-[(2,6-dichlorophenyl)carbamoyl]imidazo[1,2-a]pyridin-4-ium-2-olate]",1.81,efficacy (fleas dead or moribund) (Ctenocephalides felis): 100%; efficacy (aphids killed) (Myzus persicae [3]): 100%
"Cc1ccc[n+]2c(C(=O)C(F)(F)F)c([O-])n(CCC#N)c12 [I-027, 1-(2-Cyanoethyl)-8-methyl-3-(2,2,2-trifluoroacetyl)imidazo[1,2-a]pyridin-4-ium-2-olate]",1.35,
"COC(=O)c1c([O-])n(CCC#N)c2cccc[n+]12 [1-(2-cyanoethyl)-3-methoxycarbonylimidazo[1,2-a]pyridin-4-ium-2-olate]",0.39,

# The next lines start with results.
chromatographic logP [1],Structure (SMILES),also measured
0.8,"N#CCCn1c([O-])c(C(=O)CCl)[n+]2ccccc12 [I-084, 3-(2-Chloroacetyl)-1-(2-cyanoethyl)imidazo[1,2-a]pyridin-4-ium-2-olate]",
1.79,"O=C(c1c([O-])n(CC(F)(F)F)c2cccc[n+]12)C(F)(F)F [I-047, 3-(2,2,2-trifluoroacetyl)-1-(2,2,2-trifluoroethyl)imidazo[1,2-a]pyridin-4-ium-2-olate]",efficacy (fleas dead or moribund) (Ctenocephalides felis): 80%; efficacy (wheat plants grown as in untreated non-infested control) (Diabrotica balteata): 100%
0.8,"Cc1ccc[n+]2c(C(=O)CCl)c([O-])n(CCC#N)c12 [I-095, 3-(2-Chloroacetyl)-1-(2-cyanoethyl)-8-methyl-imidazo[1,2-a]pyridin-4-ium-2-olate]",
1.18,"COC(=O)C(=O)c1c([O-])n(CC(F)(F)F)c2cccc[n+]12 [I-051, 3-(2-Methoxy-2-oxoacetyl)-1-(2,2,2-trifluoroethyl)imidazo[1,2-a]pyridin-4-ium-2-olate]",efficacy (aphids killed) (Myzus persicae [2]): 100%
